Data published in PMC10641236, “Influenza A virus replication has a stronger dependency on Raf/MEK/ERK signaling pathway activity than SARS-CoV-2” (Frontiers in Cellular and Infection Microbiology, 2023).
Read-outs that look alike come from different tables or passages of the source.

Assays:
[1] = tested on: MEK1/2 (ERK1/2 phosphorylation); assay: IC50 determination in the absence of viral infection, TNF-α-stimulated cells, pERK/ERK ratio by WES; format: cell-based; details: Homo sapiens, TNF-α 30 min then 1 h treatment, no virus
Protocol: Cells were lysed using cold modified RIPA buffer [0.24% (w/v) tris base (Sigma-Aldrich, St. Louis, Missouri, USA), 0.88% (w/v) NaCl (Carl Roth, Karlsruhe, Germany), 0.2% (v/v) 500 mM ethylenediaminetetraacetic acid (EDTA) (Sigma-Aldrich, St. Louis, Missouri, USA), 1% (v/v) Triton X-100 (Sigma-Aldrich, St. Louis, Missouri, USA), 0.5% (w/v) sodium deoxycholate (Sigma-Aldrich, St. Louis, Missouri, USA), 0.1% (w/v) sodium dodecyl sulfate (SDS) (Carl Roth, Karlsruhe, Germany), 10% (v/v) glycerol (Carl Roth, Karlsruhe, Germany), 0.05% phenylmethylsulfonyl fluoride (PMSF) (Carl Roth, Karlsruhe, Germany), 0.01% Benzonase® Nuclease (Sigma-Aldrich, St. Louis, Missouri, USA), protease inhibitor cocktail (Roche, Basel, Switzerland), and phosphatase inhibitor cocktail (Roche, Basel, Switzerland) in water]. Determination of the protein concentration was performed using the Pierce™ BCA Protein Assay Kit (Thermo Fisher Scientific Inc., Waltham, MA, USA) according to the manufacturer’s instructions. The samples were analyzed by Wes™ using a total protein concentration of 0.25–0.5 µg/µL for each sample, the Jess/Wes Separation kit (12–230 kDa), primary antibodies against ERK1/2, p44/42 MAPK (137F5) Rabbit mAb (Cell Signaling Technology, Danvers, MA, USA, Cat. No. 4695S) and phospho-ERK1/2 (pERK1/2), Phospho-p44/42 MAPK (Erk1/2) (Thr202/Tyr204) (D13.14.4E), XP® Rabbit mAb (Cell Signaling Technology, Danvers, MA, USA, Cat. no. 4370S) in a 1:50 dilution, anti-Influenza A virus Nucleoprotein (NP) antibody (rabbit MAb) (Sino Biological, Beijing, China Cat.no 40208-R010) in a 1:150 dilution, SARS-CoV-2 nucleocapsid protein antibody (ProSci Inc., Poway, CA, USA, Cat. no. 35-580) in a 1:100 dilution, the anti-goat, anti-rabbit, and anti-mouse detection modules, and the EZ Standard Pack 1 (12–230 kDa), according to the manufacturer’s instructions. Analysis of the obtained data was performed using the Compass for SW 4.1.0 software, Microsoft Excel, and the GraphPad Prism 9.2.0 software. Ratios were calculated from the area under the curve of the respective detected signals.
Twenty-four hours before the experiment, the growth medium was exchanged to medium with respective FBS or BSA concentration. Then, cells were stimulated by the addition of tumor necrosis factor alpha (TNF-α) (Sigma-Aldrich, St. Louis, Missouri, USA) for 30 min at 37°C, 5% CO2, followed by treatment with different zapnometinib concentrations and a DMSO (solvent) control for 1 h. For determination of the IC50 value in cells infected with IAV PR8 or SARS-CoV-2, cells were infected with the respective virus and treated with zapnometinib for 24 h as described in the “Virus yield reduction assay” section. After incubation, cell lysates were prepared, and the samples were analyzed by WES™ as described in the “Preparation of cell lysates and WES™ analysis” section. The pERK/ERK ratio was calculated and normalized to the solvent control. IC50 values were determined using the “log(inhibitor) vs. response -Variable slope (four parameters)” equation in GraphPad Prism version 9.4.0.

[2] = tested on: SARS-CoV-2 N; format: cell-based; details: MOI 0.01, 24 h; for reduction of SARS-CoV-2 N (N/ERK2 normalized to solvent control): both cell lines
[3] = tested on: TMPRSS2; assay: TMPRSS2 expression by flow cytometry; format: cell-based, Homo sapiens; details: Caco-2 cells, 24 h
Protocol: For flow cytometry analysis, 6 × 10^5 Caco-2 cells were seeded per well in six-well plates (Greiner Bio-One, Kremsmünster, Austria) and incubated for 24 h at 37°C, 5% CO2. Treatment with zapnometinib or a solvent control (1% DMSO) in medium containing 0.2% BSA was applied for 24 h. A single-cell solution was prepared using TrypLE reagent (Thermo Fisher Scientific, Waltham, MA, USA). Prior to staining, cells were treated with an FcR blocking reagent (Miltenyi Biotec, Bergisch Gladbach, Germany) for 10 min at 4°C. The cells were then stained with either a PE Mouse IgG1Isotype control antibody (BioLegend, San Diego, CA, USA) or a PE anti-human TMPRSS2 Antibody (BioLegend, San Diego, CA, USA), followed by a live-dead staining using the LIVE/DEAD™ Fixable Far Red Dead Cell Stain Kit (Thermo Fisher Scientific, Waltham, MA, USA). Cells were analyzed using the BD FACSCanto II flow cytometer (Becton Dickinson, Franklin Lakes, New Jersey, USA) and the FlowJo software (Becton Dickinson, Franklin Lakes, New Jersey, USA).

O=C(O)c1ccc(F)c(F)c1Nc1ccc(I)cc1Cl [zapnometinib, 2-(2-chloro-4-iodophenylamino)-N-3,4-difluoro benzoic acid]
IC50 ([1]; Caco-2, Caco-2 cells, 0% FBS): 0.04 µM
IC50 ([1]; Caco-2, Caco-2 cells, 0.2% BSA): 4.32 µM
IC50 ([1]; Caco-2, Caco-2 cells, 5% FBS): 4.46 µM
IC50 ([1]; Caco-2, Caco-2 cells, 10% FBS): 9.15 µM
IC50 ([1]; Calu-3, Calu-3 cells, 0% FBS): 0.06 µM
IC50 ([1]; Calu-3, Calu-3 cells, 0.2% BSA): 5.33 µM
IC50 ([1]; Calu-3, Calu-3 cells, 5% FBS): 6.64 µM
IC50 ([1]; Calu-3, Calu-3 cells, 10% FBS): 8.25 µM
reduction of SARS-CoV-2 N (N/ERK2 normalized to solvent control) ([2]; 12.5 µM): approximately 50%
reduction of SARS-CoV-2 N (N/ERK2 normalized to solvent control) ([2]; 50 µM): > 70%
reduction of SARS-CoV-2 N (N/ERK2 normalized to solvent control) ([2]; 100 µM): > 80%
lowest concentration at which SARS-CoV-2 N was significantly reduced compared to solvent control [2]: 12.5 µM
increase of TMPRSS2 expression ([3]; 50 µM): 14%
increase of TMPRSS2 expression ([3]; 100 µM): 17%
